Data set [1] concerns Magnaporthe grisea (Pyricularia Oryzae). Description: whole plant or invertebrate. In kind it is in vivo. As to conditions: foliar, read-out: control of Magnaporthe grisea.
The subject of data set [2] is Monographella nivalis (Microdochium nivale). Description: Monographella nivalis (Microdochium nivale) / liquid culture (foot rot cereals). In kind it is cell-based. As to conditions: growth inhibition photometrically 4-5 days after application, read-out: control of Monographella nivalis. A digest of the protocol:
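Fungal conidia mixed directly into potato dextrose broth and added to test compound delivered in DMSO. Incubated at 24° C; growth inhibition read photometrically 4-5 days after application.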

Data set [3] deals with Mycosphaerella graminicola (Septoria tritici). The data set can be described thus: Mycosphaerella graminicola (Septoria tritici) / liquid culture (Septoria blotch). In kind it is cell-based. The note with it: Zymoseptoria tritici, growth inhibition photometrically 4-5 days after application, read-out: control of Mycosphaerella graminicola. In a few lines: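 Conidia suspended in potato dextrose broth and added to test compound supplied in DMSO in 96-well plates. Incubated at 24 °C, and growth inhibition read photometrically 4-5 days after application.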

Data set [4] has as its system Botryotinia fuckeliana (Botrytis cinerea). The data set can be described thus: Botryotinia fuckeliana (Botrytis cinerea) / liquid culture (gray mould). The note with it: growth inhibition photometrically 3-4 days after application, read-out: control of Botryotinia fuckeliana. In kind it is cell-based. In a few lines:
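Conidia suspended in Vogels broth and added to compound dispensed from DMSO. Incubated at 24°C, with growth inhibition measured photometrically 3–4 days later.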

Data set [5] concerns Fusarium culmorum. The data set can be described thus: microbe, parasite or virus in culture. In kind it is cell-based. As to conditions: read-out: control of Fusarium culmorum.
The next data set relates to Pyrenophora teres. The data set can be described thus: Pyrenophora teres / barley / leaf disc preventative (net blotch). In kind it is in vivo. As to conditions: foliar, barley leaf segments, inoculated 2 days after application. In a few lines: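 Barley cv. Hasso leaf segments on agar sprayed with formulated compound, inoculated with spores 2 days later. Incubated at 20 °C, 65% rh, 12 h light/dark; disease control versus untreated assessed 5–7 days after application.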

Data set [6] concerns Blumeria graminis f. sp. tritici (Erysiphe graminis f. sp. tritici). Description: Blumeria graminis f. sp. tritici / wheat / leaf disc preventative (powdery mildew on wheat). As to conditions: foliar, wheat leaf segments, inoculated 1 day after application. In kind it is in vivo. A digest of the protocol: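 Wheat cv. Kanzler leaf segments on agar sprayed with formulated compound in water, inoculated 1 day later by shaking mildew-infected plants overhead. Incubated at 20° C, 60% rh, 24 h dark then 12 h light/12 h dark. Percent disease control versus untreated scored 6-8 days after application.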

Data set [7] concerns Fusarium culmorum. Description: whole plant or invertebrate. In kind it is in vivo. As to conditions: in Triticum aestivum, read-out: control of Fusarium culmorum.
For data set [8], the system named is Glomerella lagenarium (Colletotrichum lagenarium). Description: Glomerella lagenarium (Colletotrichum lagenarium) / liquid culture (anthracnose). In kind it is cell-based. As to conditions: Colletotrichum orbiculare, growth inhibition photometrically 3-4 days after application, read-out: control of Glomerella lagenarium. A digest of the protocol:
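Cryo-stored conidia in potato dextrose broth were added to test compound in DMSO. Plates were incubated at 24° C, and growth inhibition was read photometrically 3-4 days after application.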

Data set [9] has as its system Mycosphaerella arachidis (Cercospora arachidicola). The data set can be described thus: Mycosphaerella arachidis (Cercospora arachidicola) / liquid culture (early leaf spot). In kind it is cell-based. As to conditions: growth inhibition photometrically 4-5 days after application, read-out: control of Mycosphaerella arachidis. In a few lines: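 Spores taken straight from cryostorage are suspended in potato dextrose broth and added to test compound in DMSO. Plates are incubated at 24° C. Growth inhibition is scored photometrically 4-5 days after application.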

Data set [10] relates to Gibberella zeae (Fusarium graminearum). Description: whole plant or invertebrate. As to conditions: in Triticum aestivum, read-out: control of Gibberella zeae. In kind it is in vivo.
Data set [11] deals with Phaeosphaeria nodorum (Septoria nodorum). Description: Phaeosphaeria nodorum (Septoria nodorum) / wheat / leaf disc preventative (glume blotch). In kind it is in vivo. As to conditions: Parastagonospora nodorum, foliar, wheat leaf segments, inoculated 2 days after application. A digest of the protocol:
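Wheat cv. Kanzler leaf segments on agar sprayed preventatively with formulated compound diluted in water, then inoculated with spore suspension 2 days after application. Incubated at 20° C, 75% rh, 12 h light/12 h dark; percent disease control versus untreated scored 5-7 days after application.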

The next data set has as its system Alternaria solani. The data set can be described thus: Alternaria solani / tomato / leaf disc (early blight). In kind it is in vivo. As to conditions: foliar, tomato leaf disks, sprayed 2 days before inoculation, compared to untreated control. The procedure: Example B1: Alternaria solani/Tomato/Leaf Disc (Early Blight) Tomato leaf disks cv. Baby are placed on agar in multiwell plates (24-well format) and sprayed with the formulated test compound diluted in water. The leaf disks are inoculated with a spore suspension of the fungus 2 days after application. The inoculated leaf disks are incubated at 23° C./21° C.

The test system of a further data set is Sclerotinia sclerotiorum. Description: Sclerotinia sclerotiorum / liquid culture (cottony rot). In kind it is cell-based. As to conditions: growth inhibition photometrically 3-4 days after application, read-out: control of Sclerotinia sclerotiorum. A digest of the protocol:
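Mycelial fragments from fresh liquid culture in potato dextrose broth added to test compound in DMSO. Incubation at 24° C; growth inhibition read photometrically 3-4 days after application.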

Take `CC(C)Nc1cccc(C(C)(CNC(=O)c2cc(-c3ccc(F)cc3F)on2)c2cnn(C)c2)n1` (centres unmarked) [Compound P-103, 5-(2,4-difluorophenyl)-N-[2-[6-(isopropylamino)-2-pyridyl]-2-(1-methylpyrazol-4-yl)propyl]isoxazole-3-carboxamide]: the pest or weed control at 200 ppm in data set [1] was not below 80%. For the same compound, the inhibition of growth at 20 ppm in data set [2] and in data set [3] was not below 80% throughout.

The melting point is the temperature of the solid-liquid transition. Regarding `COc1cc(Cl)nc(C(C)(CNC(=O)c2cc(-c3ccc(F)cc3F)on2)c2cnn(C)c2)c1` (centres unmarked) [Compound P-36, N-[2-(6-chloro-4-methoxy-2-pyridyl)-2-(1-methylpyrazol-4-yl)propyl]-5-(2,4-difluorophenyl) isoxazole-3-carboxamide], the melting point was in the range of 157 to 159 °C. In [4], the inhibition of growth at 20 ppm was not below 80%. For the same compound, the inhibition of growth at 20 ppm in the data set on Fusarium culmorum [5] was not below 80%. Also, the pest or weed control at 200 ppm in the data set with Pyrenophora teres is not below 80%. The pest or weed control at 200 ppm in data set [6] was not below 80%. Further, the pest or weed control at 200 ppm with Fusarium culmorum [7] was not below 80%. Further, the inhibition of growth at 20 ppm in data set [8] was not below 80%. In [9], the inhibition of growth at 20 ppm is not below 80%. Moreover, the inhibition of growth at 20 ppm in [2] was not below 80%. In addition, the inhibition of growth at 20 ppm in data set [3] was not below 80%. In data set [10], the pest or weed control at 200 ppm was not below 80%.

Take `Cn1cc(C(C)(CNC(=O)c2nnc(-c3ccc(F)cc3F)s2)c2cccc(Br)n2)cn1` (centres unmarked) [Compound P-5, N-[2-(6-bromo-2-pyridyl)-2-(1-methylpyrazol-4-yl)propyl]-5-(2,4-difluorophenyl)-1,3,4-thiadiazole-2-carboxamide]: the inhibition of growth at 20 ppm (in data set [4]; in the data set with Fusarium culmorum [5]; in data set [8]; in [9]; in [2]; in data set [3]) was not below 80% throughout. Besides, the pest or weed control at 200 ppm (with Pyrenophora teres; in data set [6]; in the data set with Fusarium culmorum [7]; in [11]; in the data set on Alternaria solani; in data set [10]) was not below 80% throughout.

Regarding `Cc1cccc(C(C)(CNC(=O)c2cc(-c3ccc(F)cc3F)on2)c2cnn(C)c2)n1` (centres unmarked) [Compound P-16, 5-(2,4-difluorophenyl)-N-[2-(1-methylpyrazol-4-yl)-2-(6-methyl-2-pyridyl)propyl] isoxazole-3-carboxamide], the inhibition of growth at 20 ppm (in [4]; with Fusarium culmorum [5]; in data set [8]; in data set [9]; with Sclerotinia sclerotiorum; in [2]) was not below 80% each time. Moreover, in data set [3], the inhibition of growth at 20 ppm was not below 80%. Besides, the pest or weed control at 200 ppm (in the data set on Pyrenophora teres; in data set [6]; in the data set on Fusarium culmorum [7]; in [10]) was not below 80% in each case.

In the case of `Cc1cccc(C(C)(CNC(=O)c2cc(-c3ccc(F)cc3F)on2)c2cnn(C)c2Cl)n1` (centres unmarked) [Compound P-73, N-[2-(5-chloro-1-methyl-pyrazol-4-yl)-2-(6-methyl-2-pyridyl)propyl]-5-(2,4-difluorophenyl) isoxazole-3-carboxamide], the inhibition of growth at 20 ppm (in data set [4]; in the data set with Fusarium culmorum [5]; in data set [8]; in data set [9]; in the data set with Sclerotinia sclerotiorum; in data set [2]) was not below 80% throughout. Besides, in data set [3], the inhibition of growth at 20 ppm is not below 80%. The pest or weed control at 200 ppm (in the data set with Pyrenophora teres; in data set [6]; in the data set on Fusarium culmorum [7]; in data set [11]; with Alternaria solani; in data set [10]) was not below 80% each time.

For `CCC(CNC(=O)c1cc(-c2ccc(F)cc2F)on1)(c1cnn(C)c1)c1cccc(Cl)n1` (centres unmarked) [Compound P-31, N-[2-(6-chloro-2-pyridyl)-2-(1-methylpyrazol-4-yl)butyl]-5-(2,4-difluorophenyl) isoxazole-3-carboxamide], the inhibition of growth at 20 ppm (in [4]; in the data set with Fusarium culmorum [5]; in [8]; in [9]; with Sclerotinia sclerotiorum; in [2]) was not below 80% in each case. Besides, the inhibition of growth at 20 ppm in data set [3] is not below 80%. For the same compound, the pest or weed control at 200 ppm (in the data set with Pyrenophora teres; in [6]; with Fusarium culmorum [7]; in [11]; with Alternaria solani) was not below 80% throughout.

For the compound `Cn1cc([C@@](C)(CNC(=O)c2nnc(-c3ccc(F)cc3F)s2)c2cccc(Cl)n2)cn1` [Compound P-34, N-[(2S)-2-(6-chloro-2-pyridyl)-2-(1-methylpyrazol-4-yl)propyl]-5-(2,4-difluorophenyl)-1,3,4-thiadiazole-2-carboxamide], the inhibition of growth at 20 ppm (in data set [4]; with Fusarium culmorum [5]; in data set [8]; in data set [9]; with Sclerotinia sclerotiorum; in data set [2]) was not below 80% throughout. For the same compound, the inhibition of growth at 20 ppm in data set [3] is not below 80%. Moreover, the pest or weed control at 200 ppm (in the data set on Pyrenophora teres; in data set [6]; in the data set with Fusarium culmorum [7]; in data set [11]; with Alternaria solani) was not below 80% each time.

For `COc1cc(Cl)nc([C@@](C)(CNC(=O)c2cc(-c3ccc(F)cc3F)no2)c2cnn(C)c2)c1` [Compound P-46, N-[(2R)-2-(6-chloro-4-methoxy-2-pyridyl)-2-(1-methylpyrazol-4-yl)propyl]-3-(2,4-difluorophenyl) isoxazole-5-carboxamide], the inhibition of growth at 20 ppm (in data set [4]; with Fusarium culmorum [5]; in [8]; in [9]; in data set [2]; in data set [3]) was not below 80% in each case. Also, the pest or weed control at 200 ppm (in the data set on Fusarium culmorum [7]; in [10]) was not below 80% throughout.

Turning to `Cn1cc([C@](C)(CNC(=O)c2nnc(-c3ccc(F)cc3F)s2)c2cccc(Cl)n2)cn1` [Compound P-35, N-[(2R)-2-(6-chloro-2-pyridyl)-2-(1-methylpyrazol-4-yl)propyl]-5-(2,4-difluorophenyl)-1,3,4-thiadiazole-2-carboxamide], the inhibition of growth at 20 ppm (in [4]; in the data set with Fusarium culmorum [5]; in data set [8]; in [9]; in the data set on Sclerotinia sclerotiorum; in [2]) was not below 80% throughout. Moreover, in data set [3], the inhibition of growth at 20 ppm was not below 80%. Moreover, the pest or weed control at 200 ppm (in the data set with Pyrenophora teres; in data set [6]; in the data set on Fusarium culmorum [7]; in data set [11]; with Alternaria solani; in data set [10]) was not below 80% in each case.

The values are drawn from US20240343717A1, “MICROBIOCIDAL PYRAZOLE DERIVATIVES” (SYNGENTA CROP PROTECTION AG, priority 2021, published 2024).
